Test results from patent publication US8513250B2 (Laboratoire Biodim, priority 2007, dated 2013).
Like-named read-outs stand apart in the source and are kept apart here.

Assays:
[1] = biological target: T1, DltA enzyme (Streptococcus agalactiae serotype III, UniProt Q8VM67); assay: DltA HTS assays (luminescent / fluorescent), inhibition of DltA enzymatic activity in vitro; type: biochemical, S. agalactiae; settings: Table 1; DltA inhibition, HTS assays of method 1; read-out: IC50
T1 construct: His-tag (from pET100 vector) (N); made in house; host or cells: E. coli BL21 (DE3) Star
T1 sequence (Q8VM67 1-511): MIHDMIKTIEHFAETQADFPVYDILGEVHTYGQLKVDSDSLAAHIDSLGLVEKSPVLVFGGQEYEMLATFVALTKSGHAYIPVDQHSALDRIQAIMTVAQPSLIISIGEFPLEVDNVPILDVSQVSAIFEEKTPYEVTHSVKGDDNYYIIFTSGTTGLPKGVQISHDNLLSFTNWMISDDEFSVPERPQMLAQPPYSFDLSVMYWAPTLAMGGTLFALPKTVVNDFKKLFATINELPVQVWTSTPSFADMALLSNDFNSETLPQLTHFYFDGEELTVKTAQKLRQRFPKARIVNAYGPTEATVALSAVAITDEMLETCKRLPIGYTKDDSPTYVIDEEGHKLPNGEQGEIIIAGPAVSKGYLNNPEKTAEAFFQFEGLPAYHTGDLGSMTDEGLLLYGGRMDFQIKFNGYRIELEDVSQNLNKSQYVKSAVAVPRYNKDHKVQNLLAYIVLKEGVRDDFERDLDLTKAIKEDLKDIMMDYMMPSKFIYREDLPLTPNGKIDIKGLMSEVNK
Source text: The compounds effect on DltA enzyme has been based on the measure of the inhibition of DltA activity in vitro.
To this end, a recombinant protein Dlta was expressed and purified after cloning of the gene of S. agalatiae as described below:
Methods 1: DltA HTS Assays
The assay described below makes use of dithiothreitol (DTT) instead of DltC as reactive thiol in the catalyzed reaction. In fact, the inventors have shown that DTT, but also Coenzyme A and N-Acetylcysteamine are all thiols able to replace efficiently DltC. In addition, contrary to the prior art, radioactivity is not used: all the assays are based either on luminescent ATP detection, or on fluorescent AMP detection. They are easily amenable to miniaturized formats and fast readouts as required by HTS.
The assay buffer “AB” contains 50 mM Hepes pH8.0, 10 mM MgCl2, 50 mM KCl, 0.012% Triton-X100. The following components are added in a white polystyrene Costar plate up to a final volume of 30 μL: 3 μL DMSO, or inhibitor dissolved in DMSO and 27 μL DltA enzyme and DTT in AB. After 30 min of pre-incubation at room temperature, 30 μL of Substrates mix in AB are added in each well to a final volume of 60 μL. This reaction mixture is then composed of 10 nM DltA (produced in house from S. agalactiae), 0.5 mM D-Alanine (Sigma), 0.5 μM ATP (Sigma) and 1 mM DTT (Biochemika) in assay buffer. After 90 min of incubation at room temperature, 30 μL of the revelation mix are added to a final volume of 90 μL, including the following constituents at the respective final concentrations: 2 nM luciferase (Sigma), 30 μM D-luciferin (Sigma), 100 μM N-acetylcysteamine (Aldrich). Luminescence intensity is immediately measured on an Analyst-HT (Molecular Devices) and converted into inhibition percentages. For IC50 (Inhibitory Concentration 50%) determinations, the inhibitor is added at 6 to 10 different concentrations, and the related inhibitions are fitted to a classical langmuir equilibrium model using XLFIT (IDBS).
The assay buffer “AB” contains 50 mM Hepes pH8.0, 10 mM MgCl2, 50 mM KCl, 0.012% Triton-X100. The following components are added in a black polystyrene Costar plate up to a final volume of 50 μL: 5 μL DMSO, or inhibitor dissolved in DMSO and 45 μL DltA enzyme and DTT in AB. After 30 min of pre-incubation at room temperature, 50 μL of Substrates-revelation mix in AB are added in each well to a final volume of 100 μL. This reaction mixture is then composed of 5 nM DltA (produced in house from S. agalactiae), 0.5 mM D-Alanine (Sigma), 10 μM ATP (Sigma), 1 mM DTT (Biochemika), 10 nM Adenylate kinase (produced in house), 5 u/mL Pyruvate Kinase (Sigma), 50 μM phosphoenolpyruvate (Sigma), 5 u/mL Lactate deshydrogenase (Sigma) and 3 μM NADH (Sigma) in assay buffer. Fluorescence intensity of NADH (λex=360 nm, λem=520 nm) is immediately measured kinetically by a Fluostar Optima (BMG). Inhibition percentages are derived from fitted initial velocities. For IC50 determinations, the inhibitor is added at 6 to 10 different concentrations, and the related inhibitions are fitted to a classical langmuir equilibrium model using XLFIT (IDBS). FIG. 2 represents the data obtained using this method.
The capacity of compounds to inhibit DltA enzymatic activity was assessed using the DltA HTS assays described in method 1.

[2] = tested on: S. agalactiae NEM316 WT; assay: Minimal Antivirulent Concentration (MAC) assay, sensitization of bacteria to colistin; type: cell-based; settings: S. agalactiae wt strain, in presence of colistin 32 μg/ml, overnight, no visible growth
Source text: The readout of the assay is called Minimum antivirulent concentration (MAC) and represents the minimal dose of compound for which no visible bacterial growth is observed in the presence of colistin at a subinhibitory concentration. MAC assay is described in Method 3 hereinafter.
Method 3: Assay for Minimal Antivirulent Concentration (MAC) and Minimal Inhibitory Concentration (MIC): Determination of Compounds Activity for Sensitization of Bacteria to Cationic Peptide (Colistin)
The Gram positive bacteria S. agalactiae NEM316 WT are grown on tryptic soy agar (TSA) broth over-night at 37° C. with air enriched with 5% CO2. Ten to fifteen colonies isolated from over-night growth on agar are then added to 10 ml of TS media to produce a standard suspension of organisms. This pre-culture is incubated at 37° C. with constant shaking during two to three hours to reach the exponential phase. This suspension is diluted to obtain a final inoculum of 1E+04 CFU/ml. Viable counts are obtained by plating 10 to 1000-fold dilutions of the suspension on TSA.
According to our standardized conditions, the final volume in the well is 100 μl in a 96-well microplate. Compounds are tested in a range of 1 to 32 μg/mL. Each well contains 2 μl of compound diluted in 100% DMSO, 48 μl of TS (microplate without colistin) or 48 μl of colistin in TS (final concentration of colistin is 32 μg/ml for S. agalactiae), then […] (final inoculum of 1 E+04 CFU/ml). Final concentration of DMSO is 2%. Positive growth control wells for each organism are prepared with and without colistin and DMSO 2% final concentration. S. agalactiae NEM316 Δdlt is used in control wells to verify the effect of the colistin on a sensitive strain.
The microplates are then incubated overnight at 37° C. with 5% CO2. Visible bacterial growth is finally quantified by unaided eye.
The MAC of each compound is derived from the experiment in presence of colistin and is defined as the minimal concentration of compound for which no bacterial visible growth is observed.

[3] = tested on: S. agalactiae NEM316 WT; assay: Minimal Inhibitory Concentration (MIC) assay, absence of colistin; type: cell-based; settings: Streptococcus agalactiae, NEM316WT
[4] = tested on: S. agalactiae strain NEM316; assay: Experimental model of systemic infection in mice, organ bacteraemia at 48 h; type: in vivo; settings: BALB/c mice, i.v. infection, compound intraperitoneal immediately after infection, spleen bacteraemia 48 h
Method: The effect of DltA inhibitors on the bacteria during an infection was assessed by injecting the molecules at different doses in group of mice that have received an infective dose of bacteria.
Description of Experimental Models Used to Assess the Efficacy of Inhibitors In Vivo:
Briefly, in vivo studies were performed using 4-5-week-old female BALB/c@Rj nice. S. agalactiae strain NEM316 bacteria were grown to exponential phase in broth culture. 200 μl of a bacterial suspension of 3.10^7 CFU/ml were administered by intravenous injection to groups of six mice (6.10^6 CFU/mouse). Exact inoculums counts were determined by plating 10-fold dilutions of the suspension on TH agar plates immediately after inoculation.
The compounds to be assessed are dissolved and diluted to obtain different concentration in a solution containing solutol; and 400 μl of each compound solution is injected intraperinonaly immediately after infection of the mouse. […]
The antibacterial effect obtained with different concentrations of compounds is measured by the level of bacteraemia observed at 48 H.
The graphs represent the average value of the organ bacteremia that is determined by the number of UFC/mg of organs (spleen) at 48 h post infection, obtained for each group of mice that have received different concentration of compounds (expressed in mg/kg). […]

[5] = tested on: S. agalactiae strain NEM316; assay: Colistin activity on wild type S. agalactiae; type: cell-based
Source text: (§1) The peptide used was colistin which mimicks the effect of antibacterial cationic peptide of innate immunity. In common with other polymixins, colistin is rapidly bactericidal and exerts its effect by acting as a cationic detergent, causing disruption of the integrity of the bacterial cell membrane, with leakage of intracellular contents and cell death.

[6] = tested on: S. aureus strain 54.316; assay: Colistin activity on S. aureus; type: cell-based
Source text: as §1

[7] = tested on: dltA defective mutant of S. agalactiae; assay: Colistin activity on dltA defective mutant; type: cell-based
Source text: as §1

[8] = S. agalactiae wt strain, absence of colistin, overnight, no visible growth, read-out: MIC SAG wt

`OCCCNc1nc2cc(C(F)(F)F)ccc2n2c(-c3cccc(CO)c3)cnc12` [Example 16, 3-({1-[3-(hydroxymethyl)phenyl]-7-(trifluoromethyl)imidazo[1,2-a]quinoxalin-4-yl}amino)propan-1-ol] was tested, and the IC50 [1] was 520 nM, the “MAC” value [2] was 8 µg/mL and the MIC [3, 8] was greater than 32 µg/mL.

`OCCCNc1nc2cc(C(F)(F)F)ccc2n2c(-c3ccn[nH]3)cnc12` [Example 19, 3-{[1-(1H-pyrazol-5-yl)-7-(trifluoromethyl)imidazo[1,2-a]quinoxalin-4-yl]amino}propan-1-ol] was tested, and the IC50 [1] was 9 nM, the “MAC” value [2] was 2 µg/mL and the MIC [3, 8] was greater than 32 µg/mL. For the same compound, the effective concentration [4] was 10 mg/kg.

`OCCCNc1nc2cc(C(F)(F)F)ccc2n2c(-c3cnn[nH]3)cnc12` [Example 35, 3-{[1-(1H-1,2,3-triazol-5-yl)-7-(trifluoromethyl)imidazo[1,2-a]quinoxalin-4-yl]amino}propan-1-ol] was tested, and the IC50 [1] was 270 nM, the “MAC” value [2] was 2 µg/mL and the MIC ([3]; read-out: MIC SAG wt (μg/ml)) was greater than 32 µg/mL.

`CC(C)(C)c1cc(-c2cnc3c(NCCCO)nc4cc(C(F)(F)F)ccc4n23)[nH]n1` [Example 36, 3-({1-[3-tert-butyl-1H-pyrazol-5-yl]-7-(trifluoromethyl)imidazo[1,2-a]quinoxalin-4-yl}amino)propan-1-ol] was tested, and the IC50 [1] was 49 nM, the “MAC” value [2] was 4 µg/mL and the MIC [3, 8] was greater than 32 µg/mL.

In the case of `Cc1cc(-c2cnc3c(NCCCO)nc4cc(C(F)(F)F)ccc4n23)[nH]n1` [Example 39, 3-({1-[3-methyl-1H-pyrazol-5-yl]-7-(trifluoromethyl)imidazo[1,2-a]quinoxalin-4-yl}amino)propan-1-ol], the IC50 [1] is reported as 13.5 nM, the “MAC” value [2] is reported as 8 µg/mL and the MIC [3, 8] is reported as greater than 32 µg/mL.

For `CCOC(=O)c1cc(-c2cnc3c(NCCCO)nc4cc(C(F)(F)F)ccc4n23)[nH]n1` [Example 47, 5-[4-(3-Hydroxy-propylamino)-7-trifluoromethyl-imidazo[1,2-a]quinoxalin-1-yl]-1H-pyrazole-3-carboxylic acid ethyl ester], the IC50 [1] was 35 nM, the “MAC” value [2] was 8 µg/mL and the MIC [3, 8] was greater than 32 µg/mL.

For `CNC(=O)c1cc(-c2cnc3c(NCCCO)nc4cc(C(F)(F)F)ccc4n23)[nH]n1` [Example 50, 5-{4-[(3-hydroxypropyl)amino]-7-(trifluoromethyl)imidazo[1,2-a]quinoxalin-1-yl}-N-methyl-1H-pyrazole-3-carboxamide], the IC50 [1] was 38 nM, the “MAC” value [2] was 8 µg/mL and the MIC [3, 8] was greater than 32 µg/mL.

With `OCCCNc1nc2cc(OC(F)(F)F)ccc2n2c(-c3ccn[nH]3)cnc12` [Example 51, 3-{[1-(1H-pyrazol-5-yl)-7-(trifluoromethoxy)imidazo[1,2-a]quinoxalin-4-yl]amino}propan-1-ol] the IC50 [1] was 9 nM, the “MAC” value [2] was 2 µg/mL and the MIC [3, 8] was greater than 32 µg/mL.

In the case of colistin, the MIC ([5]; S. agalactiae strain NEM316 wild type) is reported as no less than 1024 µg/mL, the “effect on the wild type strain growth” value ([5]; colistin 32 μg/ml, S. agalactiae wild type) is reported as “without effect” and the MIC [6] is reported as no less than 1024 µg/mL. For the same compound, the “dose that can inhibit totally the growth” value [7] was 32 µg/mL.
